Test system: NCI-H719 tumor spheroids, viability
Experiment: Anticancer human tumor NCI-H719 cell line growth inhibition;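 further: spheroids exposed to compounds for seven days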;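 on viability, T/C: percent viability relative to DMSO vehicle control as 100%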
Conditions: spheroids with HUVEC and MSC; for IC50: curve of first compound; for viability, T/C: stronger effect = lower value
Procedure, shortened: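 Complex spheroids of malignant cells with endothelial cells and mesenchymal stem cells; agents alone or combined, from near clinical Cmax (or 10 microM if unknown) down in half-log steps, 0.25% DMSO final.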

CC(C)n1c(=O)n(C)c2cnc3cc(F)c(-c4ccc(OCCCN5CCCCC5)nc4)cc3c21 + CC[C@@]1(O)C(=O)OCc2c1cc1n(c2=O)Cc2cc3c(CN(C)C)c(O)ccc3nc2-1
IC50 (second compound 0.003 µM): < 0.0316 µM | IC50 (second compound 0.00949 µM): < 0.0316 µM | IC50 (second compound 0.03 µM): < 0.0316 µM | IC50 (second compound 0.0949 µM): < 0.0316 µM | IC50 (second compound 0.3 µM): < 0.0316 µM | viability, T/C (second compound 0.003 µM, first compound 0.0316 µM): 33.1% | viability, T/C (second compound 0.003 µM, first compound 0.1 µM): 48.3% | viability, T/C (second compound 0.003 µM, first compound 0.316 µM): 61.5% | viability, T/C (second compound 0.003 µM, first compound 1 µM): 63.7% | viability, T/C (second compound 0.003 µM, first compound 3.16 µM): 67.9% | viability, T/C (second compound 0.003 µM, first compound 10 µM): 50.5% | viability, T/C (second compound 0.00949 µM, first compound 0.0316 µM): 8.54% | viability, T/C (second compound 0.00949 µM, first compound 0.1 µM): 8.8% | viability, T/C (second compound 0.00949 µM, first compound 0.316 µM): 7.39% | viability, T/C (second compound 0.00949 µM, first compound 1 µM): 6.31% | viability, T/C (second compound 0.00949 µM, first compound 3.16 µM): 16.9% | viability, T/C (second compound 0.00949 µM, first compound 10 µM): 12.7% | viability, T/C (second compound 0.03 µM, first compound 0.0316 µM): 7.27% | viability, T/C (second compound 0.03 µM, first compound 0.1 µM): 6.04% | viability, T/C (second compound 0.03 µM, first compound 0.316 µM): 7.74% | viability, T/C (second compound 0.03 µM, first compound 1 µM): 6.96% | viability, T/C (second compound 0.03 µM, first compound 3.16 µM): 8.35% | viability, T/C (second compound 0.03 µM, first compound 10 µM): 6.27% | viability, T/C (second compound 0.0949 µM, first compound 0.0316 µM): 7.12% | viability, T/C (second compound 0.0949 µM, first compound 0.1 µM): 6.79% | viability, T/C (second compound 0.0949 µM, first compound 0.316 µM): 7.51% | viability, T/C (second compound 0.0949 µM, first compound 1 µM): 7.66% | viability, T/C (second compound 0.0949 µM, first compound 3.16 µM): 7.78% | viability, T/C (second compound 0.0949 µM, first compound 10 µM): 6.17% | viability, T/C (second compound 0.3 µM, first compound 0.0316 µM): 8.38% | viability, T/C (second compound 0.3 µM, first compound 0.1 µM): 7.86% | viability, T/C (second compound 0.3 µM, first compound 0.316 µM): 8.29% | viability, T/C (second compound 0.3 µM, first compound 1 µM): 8.95% | viability, T/C (second compound 0.3 µM, first compound 3.16 µM): 8.79% | viability, T/C (second compound 0.3 µM, first compound 10 µM): 5.92%

Source: PubChem BioAssay AID1845212 (Molecular Pharmacology Branch, DTP, NCI, 2023)
